Where “and” joins values, the source holds several entries; their conditions need not be identical. Equal values may be shown once. Marks after values point to notes of the source that are not given here.
Test system: spinal nerve ligation model for neuropathic pain in rats
Assay: Von Frey test for mechanical allodynia in the spinal nerve ligation (Chung) model of neuropathic pain
Assay type: in vivo, rat
Settings: for mean Von Frey force required for withdrawal of left operated leg, Baseline: baseline before surgery and treatment
Description: Experimental animals were male SD rats with a starting weight of 230-250 grams. Total number of animals were n=90 for surgery and n=60 after selection. The animals were caged in groups of 3 in a temperature and humidity controlled area. They were maintained on a 12 hr light/dark cycle and had ad libitum access to food and water. Rodent models of neuropathic pain are used to investigate the underlying mechanisms of pain associated with damage to peripheral nerves and to evaluate the efficacy of novel. Tactile sensitivity was measured 7-21 days post-surgery using von Frey monofilaments before and following treatment with gabapentin and other compounds (La Buda et al. 2005).
Neuropathic pain inducement was done by following principles of Chung induced model. The SD rats were anesthetized using ketamine/xylazine sodium. The rats were shaved and placed in prone position for surgery. The L5-L6 spinal nerves were surgically litigated. The rats were returned to their cages for recuperation and recovery under comfortable warm conditions using heat lamps.
After seven days of surgery a pre selection was performed. Animals that indicate signs of post operative pain were to be selected to proceed. Pain is detected by observing when one or more of the criteria are met as follows. Licking of the operated paw, accompanied by gentle biting or pulling on the nails with the mouth; placing the leg in the air; bearing weight on the side contra-lateral to the nerve injury; deformities of the hind paw and abnormal posture and walking; weakness of the left hind paw. […] However, the animal must be able to move its leg to ensure that the L4 spinal nerve is intact. If the animal cannot move its leg, it was excluded from the study.
Second level of selection of the rats was done on day 14 after the surgery. Von Frey test was performed on the preselected rats after day 7 on day 14. Using Von Frey methodology, animals with a pain threshold of ≦26 g for the operated leg will be included in the study. After this selection step, the animals were randomly placed into their experimental groups.
Blank, positive control and test compound: Blank was just the medium used for dissolving other compounds. The positive control was Gabapentin and the test compound was the final compound of formula 1 discussed in the instant disclosure. Three types of experimental groups were formed. Different types of chemicals such as Vehicle and Control were used to determine the efficacy of the chemicals as well comparison of the instant disclosed compound of formula 1, with a positive control was performed. The final compound of the instant disclosure was administered at 100 mg/kg and 150 mg/kg body weight as two different groups. The Gabapentin was administered at 150 mg/kg body weight.
On day 14 blank compound and final compound will be administered once daily starting on study day 14 through study day 21. Gabapentin, the positive control, will be administered 2 hours prior to pain testing on study days 14 and 21. The Von Frey test was be performed prior to final compound administration (pre-final compound injection) and after final compound administration at 0.5 hours, 2 hours and 4.5 hours post-final compound injection on study days 14 and 21. Additionally, if the Von Frey response for the operated leg of one of the six treatment groups is significant at 4.5 hours, all the groups will be tested again at 6.5 hours. In all instances, unless decided otherwise in the course of the study, all dosing solutions are applied as once a day intra peritoneal (IP) administration on each of the repeated dosing sessions. After the termination of the study the animals were euthanized.
Pain Response Evaluation: Pain response was evaluated using Von Frey test for mechanical allodynia. The Von Frey test for mechanical allodynia is based on applying short pulses of pressure that are not painful to a naïve animal. […]

[1] = 150 mg/kg IP, study days 14 and 21
[2] = Table 9 (day 14), male SD rats, mean
[3] = Table 10 (day 21), male SD rats
[4] = study day 14, before first dose, male SD rats
[5] = study day 14, 150 mg/kg IP, male SD rats
[6] = study day 14, 150 mg/kg IP, male SD rats, 150 mg/kg
[7] = study day 21, before that day's dose, KRB-5b once daily from day 14, gabapentin on days 14 and 21, 150 mg/kg IP
[8] = study day 21, 150 mg/kg IP, male SD rats
[9] = study day 21, 150 mg/kg IP, male SD rats, 150 mg/kg
[10] = study day 14, 150 mg/kg IP, male SD rats, listed as gabapentin, 150 mg/kg

Row | Structure (SMILES) | analgesic activity compared to gabapentin (in words) [1] | analgesic effect on mechanical allodynia compared to Vehicle (in words) [1] | analgesic effect on mechanical allodynia compared to Vehicle (in words) (150 mg/kg IP, study days 14 and 21, listed as formula 1) | mean Von Frey force required for withdrawal of left operated leg, Baseline [2] [g] | mean Von Frey force required for withdrawal of left operated leg, Baseline [3] [g] | mean Von Frey force required for withdrawal of left operated leg, Pre-treatment [4] [g] | mean Von Frey force required for withdrawal of left operated leg, 30 min Post treatment [5] [g] | mean Von Frey force required for withdrawal of left operated leg, 6.5 hr Post treatment [5] [g] | mean Von Frey force required for withdrawal of left operated leg, 2 hr Post treatment [6] | mean Von Frey force required for withdrawal of left operated leg, 4.5 hr Post treatment [6] | mean Von Frey force required for withdrawal of left operated leg, Pre-treatment [7] [g] | mean Von Frey force required for withdrawal of left operated leg, 30 min Post treatment [8] [g] | mean Von Frey force required for withdrawal of left operated leg, 2 hr Post treatment [8] | mean Von Frey force required for withdrawal of left operated leg, 6.5 hr Post treatment [8] [g] | mean Von Frey force required for withdrawal of left operated leg, 4.5 hr Post treatment [9] | mean Von Frey force required for withdrawal of left operated leg, 2 hr Post treatment [10] [g] | mean Von Frey force required for withdrawal of left operated leg, 4.5 hr Post treatment [10] [g] | mean Von Frey force required for withdrawal of left operated leg, 2 hr Post treatment [9] | mean Von Frey force required for withdrawal of left operated leg, 4.5 hr Post treatment (study day 21, 150 mg/kg IP, male SD rats, listed as gabapentin, 150 mg/kg) [g]
1 | CCN(CCOC(=O)CCCCC1CCSS1)CC(=O)Nc1c(C)cccc1C (stereo not shown) [KRB-5b] | prolonged analgesic activity compared to gabapentin | effective as a pain analgesic item | effective in treating the spinal nerve ligation model for neuropathic pain in rats | 60.00 | 60 | 11.00 | 19.60 | 16.40 | 39.00±7.19 g and 39.00* g | 44.20±6.55 g and 44.20*# g | 15.40 | 17.50 | 21.30# g | 10.80 | 26.20±5.81 g and 26.20*# g |  |  |  | 
2 | NCC1(CC(=O)O)CCCCC1 [Gabapentin, reference compound] |  | active only at 2 hours post dosing |  | 60.00 | 60 | 9.69 | 9.85 | 10.69 | 35.69* g | 10.69 g | 7.92 | 9.85 |  | 9.62 | 10.62 g | 35.69 ± 5.69 | 10.69 ± 1.42 | 48.69±4.96 g and 48.69* g | 10.62 ± 0.90

From patent US20120022147A1, “2, 6 XYLIDINE DERIVATIVES FOR THE TREATMENT OF PAIN” (KRISANI BIOSCIENCES (P) LTD, priority 2011, published 2012)
